In ChEMBL document CHEMBL4422689, “Discovery of 4'-OH-flurbiprofen Mannich base derivatives as potential Alzheimer's disease treatment with multiple inhibitory activities” (Bioorg Med Chem, 2019):
Calls of active or inactive are those of the source. No cut-off for these calls is given here.

Legend:
[1] = Antioxidant activity assessed as trolox equivalents of AAPH radical scavenging activity at 1 to 10 uM preincubated for 15 mins followed by AAPH addition measured every min for 90 mins by ORAC-FL assay; type: functional
[2] = biological target: Amyloid-beta precursor protein (Homo sapiens) (UniProt P05067); assay: Inhibition of HFIP-pretreated human amyloid beta (1 to 42) self-induced aggregation at 25 uM measured after 24 hrs by thioflavin-T fluorescence assay relative to control
Chain of Amyloid-beta precursor protein (Homo sapiens) (P05067 whole entry): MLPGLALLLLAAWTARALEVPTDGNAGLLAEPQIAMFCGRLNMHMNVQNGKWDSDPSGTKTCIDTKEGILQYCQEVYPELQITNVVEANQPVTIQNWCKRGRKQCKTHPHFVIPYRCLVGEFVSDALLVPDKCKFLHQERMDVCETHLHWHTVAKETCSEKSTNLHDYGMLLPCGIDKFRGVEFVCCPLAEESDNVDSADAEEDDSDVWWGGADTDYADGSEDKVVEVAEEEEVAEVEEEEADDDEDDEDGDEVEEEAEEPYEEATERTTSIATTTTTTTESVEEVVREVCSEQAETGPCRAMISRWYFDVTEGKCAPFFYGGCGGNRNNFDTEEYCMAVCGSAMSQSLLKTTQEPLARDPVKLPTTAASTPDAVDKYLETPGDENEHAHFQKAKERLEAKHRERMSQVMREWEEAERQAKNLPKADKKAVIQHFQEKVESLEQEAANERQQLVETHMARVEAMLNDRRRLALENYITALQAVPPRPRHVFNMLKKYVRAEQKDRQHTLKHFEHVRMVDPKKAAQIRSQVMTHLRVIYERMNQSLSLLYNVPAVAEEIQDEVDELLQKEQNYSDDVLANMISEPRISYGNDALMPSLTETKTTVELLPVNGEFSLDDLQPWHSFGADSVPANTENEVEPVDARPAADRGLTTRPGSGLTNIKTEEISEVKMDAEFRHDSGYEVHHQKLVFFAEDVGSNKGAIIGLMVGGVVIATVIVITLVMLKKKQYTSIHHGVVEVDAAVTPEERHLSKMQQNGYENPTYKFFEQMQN

[3] = Inhibition of Cu2+-induced human amyloid beta (1 to 42) aggregation at 25 uM after 24 hrs by thioflavin T-based fluorometric assay relative to control
[4] = biological target: Acetylcholinesterase (Electrophorus electricus) (UniProt O42275); assay: Inhibition of Electrophorus electricus AChE at 50 uM using acetylthiocholine iodide as substrate measured after 15 mins by Ellman's method relative to control
Chain of Acetylcholinesterase (Electrophorus electricus) (O42275 24-633 limits assumed): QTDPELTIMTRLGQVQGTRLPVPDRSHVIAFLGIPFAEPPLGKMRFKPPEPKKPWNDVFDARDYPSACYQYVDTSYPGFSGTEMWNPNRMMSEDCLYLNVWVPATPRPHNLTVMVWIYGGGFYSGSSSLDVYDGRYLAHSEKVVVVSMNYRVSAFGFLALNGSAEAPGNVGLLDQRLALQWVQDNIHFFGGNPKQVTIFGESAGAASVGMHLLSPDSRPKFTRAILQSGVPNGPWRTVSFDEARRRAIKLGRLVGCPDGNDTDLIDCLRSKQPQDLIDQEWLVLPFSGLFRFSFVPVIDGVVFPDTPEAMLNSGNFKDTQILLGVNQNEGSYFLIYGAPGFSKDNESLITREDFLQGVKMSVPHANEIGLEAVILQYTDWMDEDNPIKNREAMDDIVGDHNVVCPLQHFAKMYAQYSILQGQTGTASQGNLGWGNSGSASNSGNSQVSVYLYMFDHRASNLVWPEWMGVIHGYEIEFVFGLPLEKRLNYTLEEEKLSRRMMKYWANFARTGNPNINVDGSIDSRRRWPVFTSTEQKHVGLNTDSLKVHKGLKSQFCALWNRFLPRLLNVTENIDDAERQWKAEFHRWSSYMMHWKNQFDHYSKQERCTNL

[5] = biological target: Butyrylcholinesterase (BuChE) (Rattus norvegicus, UniProt Q9JKC1); assay: (§1) Inhibition of rat serum BuChE at 25 uM using butyrylthiocholine iodide as substrate after 15 mins by Ellman's method relative to control; conditions: rat serum, probe butyrylthiocholine iodide
Chain of Butyrylcholinesterase (BuChE) (Q9JKC1 whole entry): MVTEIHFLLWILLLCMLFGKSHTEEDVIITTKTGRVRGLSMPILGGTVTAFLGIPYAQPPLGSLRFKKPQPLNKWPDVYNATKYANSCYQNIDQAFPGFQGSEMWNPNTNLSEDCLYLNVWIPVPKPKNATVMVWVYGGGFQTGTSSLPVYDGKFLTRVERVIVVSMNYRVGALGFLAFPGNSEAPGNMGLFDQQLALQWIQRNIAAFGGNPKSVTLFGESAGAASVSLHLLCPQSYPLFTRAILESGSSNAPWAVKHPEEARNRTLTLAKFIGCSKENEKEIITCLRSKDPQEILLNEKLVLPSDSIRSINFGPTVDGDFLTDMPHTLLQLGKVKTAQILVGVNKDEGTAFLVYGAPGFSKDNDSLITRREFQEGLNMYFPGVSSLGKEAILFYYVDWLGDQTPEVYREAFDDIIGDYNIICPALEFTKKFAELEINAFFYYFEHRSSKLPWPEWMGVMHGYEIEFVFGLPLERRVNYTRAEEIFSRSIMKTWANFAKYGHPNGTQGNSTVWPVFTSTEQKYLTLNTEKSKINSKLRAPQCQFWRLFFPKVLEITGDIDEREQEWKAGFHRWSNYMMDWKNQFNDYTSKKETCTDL

Butyrylcholinesterase = Butyrylcholinesterase (Rattus norvegicus, UniProt Q9JKC1); assay: as §1; conditions: 0.25 h, 25 µM
Chain of Butyrylcholinesterase (Q9JKC1 whole entry): as above

[6] = Permeability of the compound in pH 7.4 PBS/EtOH at 100 ug/ml after 18 hrs by PAMPA-BBB assay
BV-2 [7] = assay: Inhibition of LPS-induced nitric oxide production in mouse BV2 cells at 2.5 uM pretreated for 30 mins followed by LPS-stimulation and measured after 24 hrs by Griess assay relative to control; type: functional
BV-2 [8] = assay: Inhibition of LPS-induced nitric oxide production in mouse BV2 cells at 10 uM pretreated for 30 mins followed by LPS-stimulation and measured after 24 hrs by Griess assay relative to control; type: functional
BV-2 [9] = assay: Inhibition of LPS-induced TNFalpha production in mouse BV2 cells at 2.5 uM pretreated for 30 mins followed by LPS-stimulation and measured after 24 hrs by ELISA relative to control; type: functional
BV-2 [10] = assay: Inhibition of LPS-induced TNFalpha production in mouse BV2 cells at 10 uM pretreated for 30 mins followed by LPS-stimulation and measured after 24 hrs by ELISA relative to control; type: functional
[11] = Metal chelating activity of the compound assessed as formation of Al3+-compound complex by measuring red shift in maximum absorption at 37.5 uM after 30 mins by UV-vis absorption spectra analysis
[12] = Metal chelating activity of the compound assessed as formation of Cu2+-compound complex by measuring red shift in maximum absorption at 37.5 uM after 30 mins by UV-vis absorption spectra analysis
[13] = Metal chelating activity of the compound assessed as formation of Fe2+-compound complex by measuring red shift in maximum absorption at 37.5 uM after 30 mins by UV-vis absorption spectra analysis
[14] = Metal chelating activity of the compound assessed as formation of Cu2+-compound complex by measuring absorbance at 37.5 uM after 30 mins by UV-vis absorption spectra analysis
[15] = Metal chelating activity of the compound assessed as formation of Fe2+-compound complex by measuring absorbance at 37.5 uM after 30 mins by UV-vis absorption spectra analysis
[16] = Metal chelating activity of the compound assessed as formation of Zn2+-compound complex at 37.5 uM after 30 mins by UV-vis absorption spectra analysis
BV-2 [17] = assay: Cytotoxicity against mouse BV2 cells assessed as effect on cell viability up to 10 uM after 24 hrs by MTT assay; type: cell-based; conditions: bv-2, 24 h
BV-2 [18] = assay: Cytotoxicity against LPS-stimulated mouse BV2 cells assessed as effect on cell viability at 0.5 to 10 uM pretreated for 30 mins followed by LPS-stimulation and measured after 24 hrs by MTT assay; type: cell-based; conditions: bv-2, 24 h
BV-2 [19] = assay: Cytotoxicity against LPS-stimulated mouse BV2 cells assessed as effect on cell viability at 2.5 to 10 uM pretreated for 30 mins followed by LPS-stimulation and measured after 24 hrs by MTT assay; type: cell-based; conditions: bv-2, 24 h
BV-2 [20] = assay: Inhibition of LPS-induced nitric oxide production in mouse BV2 cells at 0.5 uM pretreated for 30 mins followed by LPS-stimulation and measured after 24 hrs by Griess assay relative to control; type: functional
BV-2 [21] = assay: Inhibition of LPS-induced TNFalpha production in mouse BV2 cells at 0.5 uM pretreated for 30 mins followed by LPS-stimulation and measured after 24 hrs by ELISA relative to control; type: functional

## COC(=O)C(C)c1ccc(-c2ccc(O)c(CN3CCCC3)c2)c(F)c1 (stereo not drawn)
[1]
  Activity: 2.13 µMequiv/µM
[2]
  inhibition: 15.8%
[3]
  inhibition: 28.5%
[4]
  inhibition: 17%
[5]
  inhibition at 0.25 h, 25 µM: 1.38%

## CCN1CCN(Cc2cc(-c3ccc(C(C)C(=O)OC)cc3F)ccc2O)CC1 (stereo not drawn)
[1]
  Activity: 2.16 µMequiv/µM
[2]
  inhibition: 28.9%
[3]
  inhibition: 33.9%
[4]
  inhibition: 7.13%
[5]
  inhibition at 0.25 h, 25 µM: 4.28%

## CCN(Cc1cc(-c2ccc(C(C)C(=O)OC)cc2F)ccc1O)Cc1ccccc1N(C)C (stereo not drawn)
[1]
  Activity: 1.57 µMequiv/µM
[2]
  inhibition: 60.6%
[3]
  inhibition: 42.1%
[4]
  inhibition: 45.5%
[5]
  inhibition at 0.25 h, 25 µM: 16.3%

## CC(C(=O)O)c1ccc(-c2ccccc2)c(F)c1 (stereo not drawn) [FLURBIPROFEN]
[1]
  Activity: 0.18 µMequiv/µM
[2]
  inhibition: 12.8%
[3]
  inhibition: 7.56%
[4]
  inhibition: 15.6%
Butyrylcholinesterase
  inhibition (INH): Not Active
[6]
  Papp at 18 h, 100 ug/ml: 1.56 ×10⁻⁶ cm/s
BV-2 [7]
  inhibition at 2.5 µM: 11.8%
BV-2 [8]
  inhibition at 10 µM: 23%
BV-2 [9]
  inhibition at 2.5 µM: 9.6%
BV-2 [10]
  inhibition at 10 µM: 30.3%

## COC(=O)C(C)c1ccc(-c2ccc(O)c(CN3CCN(C)CC3)c2)c(F)c1 (stereo not drawn)
[1]
  Activity: 2.12 µMequiv/µM
[2]
  inhibition: 34.1%
[3]
  inhibition: 16.2%
[4]
  inhibition: 13.3%
[5]
  inhibition at 0.25 h, 25 µM: 1.12%

## CCN(Cc1cc(-c2ccc(C(C)C(=O)OC)cc2F)ccc1O)Cc1ccccc1OC (stereo not drawn)
[1]
  Activity: 2.6 µMequiv/µM
[2]
  inhibition: 60.5%
[3]
  inhibition: 42.5%
[4]
  inhibition: 28%
[5]
  inhibition at 0.25 h, 25 µM: 5.12%

## COC(=O)C(C)c1ccc(-c2ccc(O)c(CN3CCOCC3)c2)c(F)c1 (stereo not drawn)
[1]
  Activity: 2.14 µMequiv/µM
[2]
  inhibition: 12.9%
[3]
  inhibition: 22.1%
[4]
  inhibition: 14.9%
[5]
  inhibition at 0.25 h, 25 µM: 1.19%

## COc1cc(/C=C/C(=O)CC(=O)/C=C/c2ccc(O)c(OC)c2)ccc1O
[3]
  inhibition: 67.2%

## CCN(Cc1ccc(N(C)C)cc1)Cc1cc(-c2ccc(C(C)C(=O)OC)cc2F)ccc1O (stereo not drawn)
[1]
  Activity: 4.09 µMequiv/µM
[2]
  inhibition: 65%
[3]
  inhibition: 38%
[4]
  inhibition: 34.1%
[5]
  inhibition at 0.25 h, 25 µM: 2.21%
[11]
  Activity: 278 nm
[12]
  Activity: 270 nm
[13]
  Activity: 270 nm
[14]
  Activity: 0.1
[15]
  Activity: 0.1
[16]
  Activity: inactive
[6]
  Papp at 18 h, 100 ug/ml: 8.54 ×10⁻⁶ cm/s
BV-2 [17]
  Activity: Non-Toxic
BV-2 [18]
  Activity: Non-Toxic
BV-2 [19]
  Activity: Non-Toxic
BV-2 [20]
  inhibition at 0.5 µM: 28.3%
BV-2 [7]
  inhibition at 2.5 µM: 32.5%
BV-2 [8]
  inhibition at 10 µM: 65%
BV-2 [21]
  inhibition at 0.5 µM: 25.3%
BV-2 [9]
  inhibition at 2.5 µM: 55.3%
BV-2 [10]
  inhibition at 10 µM: 68.2%

## COC(=O)C(C)c1ccc(-c2ccc(O)c(CN3CCN(Cc4ccccc4)CC3)c2)c(F)c1 (stereo not drawn)
[1]
  Activity: 1.19 µMequiv/µM
[2]
  inhibition: 28.4%
[3]
  inhibition: 39.2%
[4]
  inhibition: 38.3%
[5]
  inhibition at 0.25 h, 25 µM: 2.86%

## COc1cc2c(cc1OC)C(=O)C(CC1CCN(Cc3ccccc3)CC1)C2 (stereo not drawn)
[3]
  inhibition: < 5%

## CCN(Cc1ccccc1)Cc1cc(-c2ccc(C(C)C(=O)OC)cc2F)ccc1O (stereo not drawn)
[1]
  Activity: 2.24 µMequiv/µM
[2]
  inhibition: 36.8%
[3]
  inhibition: 34.9%
[4]
  inhibition: 36.4%
[5]
  inhibition at 0.25 h, 25 µM: 4.61%

## COC(=O)C(C)c1ccc(-c2ccc(O)c(CN3CCCCC3)c2)c(F)c1 (stereo not drawn)
[1]
  Activity: 1.51 µMequiv/µM
[2]
  inhibition: 15.5%
[3]
  inhibition: 11.2%
[4]
  inhibition: 22.9%
[5]
  inhibition at 0.25 h, 25 µM: 1.95%

## COC(=O)C(C)c1ccc(-c2ccc(O)c(CN(C)Cc3ccccc3OC)c2)c(F)c1 (stereo not drawn)
[1]
  Activity: 2.12 µMequiv/µM
[2]
  inhibition: 60.6%
[3]
  inhibition: 38.8%
[4]
  inhibition: 28%
[5]
  inhibition at 0.25 h, 25 µM: 3.06%

## CCN(CC)Cc1cc(-c2ccc(C(C)C(=O)OC)cc2F)ccc1O (stereo not drawn)
[1]
  Activity: 1.81 µMequiv/µM
[2]
  inhibition: 8.3%
[3]
  inhibition: 29.7%
[4]
  inhibition: 14.3%
[5]
  inhibition at 0.25 h, 25 µM: 1.58%

## COC(=O)C(C)c1ccc(-c2ccc(O)c(CN(C)C)c2)c(F)c1 (stereo not drawn)
[1]
  Activity: 2.07 µMequiv/µM
[2]
  inhibition: 42.7%
[3]
  inhibition: 38.1%
[4]
  inhibition: 18.6%
[5]
  inhibition at 0.25 h, 25 µM: 2.56%
[6]
  Papp at 18 h, 100 ug/ml: 6.78 ×10⁻⁶ cm/s
BV-2 [17]
  Activity: Non-Toxic
BV-2 [18]
  Activity: Non-Toxic
BV-2 [19]
  Activity: Non-Toxic
BV-2 [20]
  inhibition at 0.5 µM: 21.7%
BV-2 [7]
  inhibition at 2.5 µM: 39.2%
BV-2 [8]
  inhibition at 10 µM: 61.7%
BV-2 [21]
  inhibition at 0.5 µM: 21.8%
BV-2 [9]
  inhibition at 2.5 µM: 51.2%
BV-2 [10]
  inhibition at 10 µM: 72.9%

## COC(=O)C(C)c1ccc(-c2ccc(O)c(CN(C)Cc3ccccc3)c2)c(F)c1 (stereo not drawn)
[1]
  Activity: 1.59 µMequiv/µM
[2]
  inhibition: 36.7%
[3]
  inhibition: 31.2%
[4]
  inhibition: 35.1%
[5]
  inhibition at 0.25 h, 25 µM: 1.28%
